Measurements from ChEMBL document CHEMBL1154173, “L-proline-catalysed facile green protocol for the synthesis and antimycobacterial evaluation of [1,4]-thiazines” (2009).
Converted amounts (≈) assume the structure as drawn.

Tested on: Mycobacterium tuberculosis
Assay: Antimycobacterial activity against multidrug resistant Mycobacterium tuberculosis by agar dilution method
Assay type: functional

| SMILES | MIC [µM] |
| --- | --- |
| CCOC(=O)C1C(c2ccc(C)cc2)NC(c2ccc(C)cc2)C(C(=O)c2ccc(Cl)cc2)S1(=O)=O (racemic) | 1.48 (≈ 0.779 µg/mL) |
| CCOC(=O)C1C(c2ccc(OC)cc2)NC(c2ccc(OC)cc2)C(C(=O)c2ccc(Cl)cc2)S1(=O)=O (racemic) | 1.4 (≈ 0.781 µg/mL) |
| CCOC(=O)C1C(c2ccc(Cl)cc2)NC(c2ccc(Cl)cc2)C(C(=O)c2ccc(Cl)cc2)S1(=O)=O (racemic) | 5.52 (≈ 3.13 µg/mL) |
| CCOC(=O)C1C(c2ccc([N+](=O)[O-])cc2)NC(c2ccc([N+](=O)[O-])cc2)C(C(=O)c2ccc(Cl)cc2)S1(=O)=O (racemic) | 0.68 (≈ 0.4 µg/mL) |
| CC[C@@H](CO)NCCN[C@@H](CC)CO [ETHAMBUTOL] | 61.2 (≈ 12.5 µg/mL) |
| NNC(=O)c1ccncc1 [ISONIAZID] | 45.6 (≈ 6.25 µg/mL) |
| NC(=O)c1cnccn1 [PYRAZINAMIDE] | 406 (≈ 50 µg/mL) |
| CO[C@H]1/C=C/O[C@@]2(C)Oc3c(C)c(O)c4c(O)c(c(/C=N/N5CCN(C)CC5)c(O)c4c3C2=O)NC(=O)/C(C)=C\C=C\[C@H](C)[C@H](O)[C@@H](C)[C@@H](O)[C@@H](C)[C@H](OC(C)=O)[C@@H]1C [RIFAMPIN] | 3.8 (≈ 3.13 µg/mL) |
